{
  "source": "ChEMBL document CHEMBL1145704",
  "about": "“Absolute Configuration of 2,6-Dimethylheptyl Sulfate and Its Distribution in Ascidiacea” (J Nat Prod, 1997)",
  "key": {"[1]": {"assay": "Toxicity against Artemia salina L EACH", "format": "organism-based", "conditions": "in vivo"}, "Gambusia affinis": {"system": "Gambusia affinis", "assay": "Toxicity in Gambusia affinis upto 100 ug/mL by lethality assay", "format": "organism-based", "conditions": "in vivo"}},
  "data": [
    {"smiles": "CC(C)CCC[C@@H](C)COS(=O)(=O)[O-].[Na+]", "values": [
      {"measurement": "LC50", "setting": "[1]", "value": 17.8, "unit": "µg/mL"},
      {"measurement": "Activity", "setting": "Gambusia affinis", "value": "Non-toxic"}
    ]}
  ]
}
